Measured values as given in US7514452B2, “2-furancarboxylic acid hydrazides and pharmaceutical compositions containing the same” (Dainippon Pharmaceutical Co., Ltd, priority 2002, dated 2009).

Biological target: glucagon receptor (Mus musculus, UniProt Q61606)
Experiment: Experiment for glucagon binding inhibition, mouse hepatic membrane (125I-glucagon)
Conditions: male ddY mouse hepatic membrane, 125I-glucagon 50 pM, 25° C. for 30 minutes; read-out: Glucagon binding inhibitory activity IC50 (nM) Mouse
Description: (§1) The preparation of membrane from mouse and rat livers was carried out according to the method described in Bioorg. Med. Chem. Lett. 1992, 12, 915-918 in this experiment and ^125I-glucagon binding activity was measured with these membranes as glucagon receptor's samples. Livers were removed from male SD rats (about 250 g body weight per rat) and male ddY mice (about 30 g body weight per mouse). […] The homogenate was centrifuged for 15 minutes at 30,000×g. […] The precipitaion thus obtained was used as a hepatic membrane sample. […] The mixture was incubated at 25° C. for 30 minutes. […] The filter was washed 3 times with 50 mM Tris-HCl buffer (pH 7.2), and the radioactivity of the filter was measured by a γ counter (ARC-360, Aloka Co., Ltd.). […] Each experiment was carried out in duplicate. […] The concentration at 50% inhibition of binding (IC50) was calculated using a pseudo Hill plot.

Chain of glucagon receptor (Mus musculus, UniProt Q61606) (Q61606 27-485): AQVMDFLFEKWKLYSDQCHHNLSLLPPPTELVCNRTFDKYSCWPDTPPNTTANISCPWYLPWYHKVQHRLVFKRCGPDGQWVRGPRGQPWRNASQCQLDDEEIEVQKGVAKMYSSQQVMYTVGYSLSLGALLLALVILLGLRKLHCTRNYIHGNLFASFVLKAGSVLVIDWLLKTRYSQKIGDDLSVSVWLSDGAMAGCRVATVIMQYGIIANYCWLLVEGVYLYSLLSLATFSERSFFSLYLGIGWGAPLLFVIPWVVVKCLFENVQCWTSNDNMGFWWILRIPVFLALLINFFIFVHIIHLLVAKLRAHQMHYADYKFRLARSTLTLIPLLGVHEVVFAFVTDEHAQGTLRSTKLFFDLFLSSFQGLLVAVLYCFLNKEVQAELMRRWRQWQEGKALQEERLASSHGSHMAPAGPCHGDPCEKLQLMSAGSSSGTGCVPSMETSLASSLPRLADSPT

IC50	SMILES
23 nM	CS(=O)(=O)Nc1ccccc1COc1cccc(-c2ccoc2C(=O)NNC(=O)c2ccc(O)c([N+](=O)[O-])c2)c1 [Example 138, 3-[3-(2-Methylsulfonylaminobenzyloxy)phenyl]-2-furancarboxylic acid 2-(4-hydroxy-3-nitrobenzoyl)hydrazide]
28 nM	CC(=O)Nc1ccccc1COc1cccc(-c2ccoc2C(=O)NNC(=O)c2ccc(O)c([N+](=O)[O-])c2)c1 [Example 179, 3-[3-(2-Acetylaminobenzyloxy)phenyl]-2-furancarboxylic acid 2-(4-hydroxy-3-nitrobenzoyl)hydrazide]

Biological target: glucagon receptor (Rattus norvegicus, UniProt P30082)
Experiment: Experiment for glucagon binding inhibition, rat hepatic membrane (125I-glucagon)
Conditions: male SD rat hepatic membrane, 125I-glucagon 50 pM, 25° C. for 30 minutes; read-out: Glucagon binding inhibitory activity IC50 (nM) Rat
Description: as §1

Chain of glucagon receptor (Rattus norvegicus, UniProt P30082) (P30082 27-485): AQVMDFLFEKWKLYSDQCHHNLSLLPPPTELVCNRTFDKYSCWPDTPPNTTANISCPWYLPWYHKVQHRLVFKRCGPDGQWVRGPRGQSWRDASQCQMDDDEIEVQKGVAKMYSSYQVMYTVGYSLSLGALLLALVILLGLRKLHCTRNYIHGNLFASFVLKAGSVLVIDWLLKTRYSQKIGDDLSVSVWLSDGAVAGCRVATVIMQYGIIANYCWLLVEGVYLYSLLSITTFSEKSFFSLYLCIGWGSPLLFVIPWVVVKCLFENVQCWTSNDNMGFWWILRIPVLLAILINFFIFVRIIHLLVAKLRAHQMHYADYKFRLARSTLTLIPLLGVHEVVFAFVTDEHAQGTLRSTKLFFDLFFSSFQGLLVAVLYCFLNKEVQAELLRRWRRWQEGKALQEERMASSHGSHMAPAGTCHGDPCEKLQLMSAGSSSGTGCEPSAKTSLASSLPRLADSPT

IC50	SMILES
15 nM	CS(=O)(=O)Nc1ccccc1COc1cccc(-c2ccoc2C(=O)NNC(=O)c2ccc(O)c([N+](=O)[O-])c2)c1 [Example 138, 3-[3-(2-Methylsulfonylaminobenzyloxy)phenyl]-2-furancarboxylic acid 2-(4-hydroxy-3-nitrobenzoyl)hydrazide]
63 nM	CC(=O)Nc1ccccc1COc1cccc(-c2ccoc2C(=O)NNC(=O)c2ccc(O)c([N+](=O)[O-])c2)c1 [Example 179, 3-[3-(2-Acetylaminobenzyloxy)phenyl]-2-furancarboxylic acid 2-(4-hydroxy-3-nitrobenzoyl)hydrazide]

System: not given
Experiment: not given
Conditions: not given

melting point	SMILES
221 to 222 °C	CC(=O)N(Cc1ccccc1)c1cccc(-c2ccoc2C(=O)NNC(=O)c2ccc(O)c(C#N)c2)c1
179 to 181 °C	N#Cc1cc(C(=O)NNC(=O)c2occc2-c2cccc(NC(=O)OCc3ccccc3)c2)ccc1O
237 °C	O=C(NNC(=O)c1occc1-c1ccncc1)c1ccc(O)c([N+](=O)[O-])c1
174 to 175 °C	Cc1cc(C)c(C)c(COc2cccc(-c3coc(C(=O)NNC(=O)c4ccc(O)c([N+](=O)[O-])c4)c3-c3cccc(OCc4c(C)c(C)cc(C)c4C)c3)c2)c1C
220 to 225 °C	COc1ccc(C(=O)NNC(=O)c2occ(-c3ccccc3)c2-c2ccccc2)cc1C#N
150 to 158 °C	COc1ccc(C(=O)NNC(=O)c2occ(-c3ccccc3)c2-c2ccccc2)cc1[N+](=O)[O-]
178 to 180 °C	Cc1ccccc1COc1cccc(-c2ccoc2C(=O)NNC(=O)c2ccc(O)c(C#N)c2)c1
170 to 171 °C	CS(=O)(=O)Oc1cccc(-c2ccoc2C(=O)NNC(=O)c2ccc(O)c([N+](=O)[O-])c2)c1
147 to 154 °C	CC(C)(C)OC(=O)c1cc(C(=O)NNC(=O)c2occc2-c2ccccc2)ccc1O
250 to 251 °C	O=C(NNC(=O)c1occc1-c1ccccc1)c1ccc(O)c(C(=O)O)c1
132 to 135 °C	O=C(NNC(=O)c1occ(-c2ccccc2)c1-c1ccccc1)c1cccs1
240 to 242 °C	Cc1ccc(-c2ccoc2C(=O)NNC(=O)c2ccc(O)c(Cl)c2)cc1
115 to 120 °C	O=C(NNC(=O)c1occ(-c2ccccc2)c1-c1ccccc1)c1ccncc1
190 to 192 °C	O=C(NNC(=O)c1occ(-c2ccccc2)c1-c1ccccc1)c1ccccn1
203 to 207 °C	COc1ccc(C(=O)NNC(=O)c2occ(-c3ccccc3)c2-c2ccccc2)cc1Cl
197 to 199 °C	O=C(NNC(=O)c1occ(-c2ccccc2)c1-c1ccccc1)c1ccc(O)c(Cl)c1
175 to 177 °C	C=Cc1coc(C(=O)NNC(=O)c2ccc(O)c(C#N)c2)c1-c1ccccc1
190 to 192 °C	CCc1c(-c2ccccc2)coc1C(=O)NNC(=O)c1ccc(O)c(C#N)c1
186 to 188 °C	CCc1coc(C(=O)NNC(=O)c2ccc(O)c(C#N)c2)c1-c1ccccc1
181 to 184 °C	COc1ccc(C(=O)NNC(=O)c2occ(-c3ccccc3)c2-c2ccccc2)cc1OC
240 to 242 °C	COc1ccc(C(=O)NNC(=O)c2occ(-c3ccccc3)c2-c2ccccc2)c(OC)c1
229 to 230 °C	COc1c(Cl)cc(C(=O)NNC(=O)c2occ(-c3ccccc3)c2-c2ccccc2)cc1Cl
242 to 244 °C	O=C(NNC(=O)c1occ(-c2ccccc2)c1-c1ccccc1)c1ccc(O)c(O)c1
285 to 288 °C	O=C(NNC(=O)c1occ(-c2ccccc2)c1-c1ccccc1)c1ccc(O)cc1O
261 to 263 °C	O=C(NNC(=O)c1occ(-c2ccccc2)c1-c1ccccc1)c1cc(Cl)c(O)c(Cl)c1
217 to 218 °C	O=C(NNC(=O)c1occ(-c2ccccc2)c1-c1ccccc1)c1ccc(O)c(-c2ccccc2)c1
